# Data published in patent US8399378B2, “Use of neonicotinoids in pest control” (Syngenta Crop Protection LLC, priority 1998, dated 2013).
# What was measured:
# Type in all cases: in vivo
# Anthonomus grandis [1] = test: Spray test on young cotton plants, action against Anthonomus grandis adults; conditions: spray 100, 50, 10, 5, 1 ppm, evaluation 3 to 10 days
# From the text: (§1) Young transgenic cotton plants which express the δ-endotoxin CryIIIA are sprayed with an aqueous emulsion spray mixture comprising 100, 50, 10, 5, 1 ppm of imidacloprid respectively. After the spray coating has dried on, the cotton plants are populated with 10 adult Anthonomus grandis, 10 Spodoptera littoralis larvae or 10 Heliothis virescens larvae respectively and introduced into a plastic container. Evaluation takes place 3 to 10 days later.
# as §1, with “thiamethoxam” for “imidacloprid”
# as §1, with “Ti-435” for “imidacloprid”
# as §1, with “CryIa(c)” for “CryIIIA”, “Ti-435” for “imidacloprid”
# as §1, with “CryIa(c)” for “CryIIIA”, “thiamethoxam” for “imidacloprid”
# as §1, with “CryIa(c)” for “CryIIIA”
# Spodoptera littoralis [2] = test: Spray test on young cotton plants, action against Spodoptera littoralis larvae
# From the text: as §1
# as §1, with “thiamethoxam” for “imidacloprid”
# as §1, with “Ti-435” for “imidacloprid”
# as §1, with “CryIa(c)” for “CryIIIA”, “Ti-435” for “imidacloprid”
# as §1, with “CryIa(c)” for “CryIIIA”, “thiamethoxam” for “imidacloprid”
# as §1, with “CryIa(c)” for “CryIIIA”
# Heliothis spp. = test: Maize plot spray test (KnockOut vs conventional maize), action against Heliothis spp.; conditions: 6 days
# Method: (§2) A plot (a) planted with maize cv. KnockOut® and an adjacent plot (b) of the same size which is planted with conventional maize, both showing natural infestation with Ostrinia nubilalis, Spodoptera spp. or Heliothis, are sprayed with an aqueous emulsion spray mixture comprising 200, 100, 50, 10, 5, 1 ppm of Ti-435. Immediately afterwards, plot (b) is treated with an emulsion spray mixture comprising 200, 100, 50, 10, 5, 1 ppm of the endotoxin expressed by KnockOut®. Evaluation takes place 6 days later. The percentage reduction in population (% action) is determined by comparing the number of dead pests on the plants of plot (a) with that on the plants of plot (b).
# as §2, with “thiamethoxam.” for “Ti-435.”
# as §2, with “imidacloprid.” for “Ti-435.”
# Nilaparvata lugens = test: Rice plant pot test, action against Nilaparvata lugens (systemic); conditions: 6 days; for control (percentage reduction in population, % action): placed in aqueous emulsion with 400 ppm compound; for control level: pot (B) conventional rice plants
# Method: (§3) Rice plants expressing the δ-endotoxin CryIA(b) are planted in a in pot (A) and conventional rice plants are planted in a pot (B). Pot (A) is placed in an aqueous emulsion containing 400 ppm thiamethoxam, whereas plot (B) is place in a pot containing 400 ppm thiamethoxam and 400 ppm of the δ-endotoxin CryIA(b). The plants are subsequently infected with Nilaparvata lugens larvae of the second and third stage. The test is evaluated after 6 days.
# The percentage reduction in population (% action) is determined by comparing the number of dead pests on the plants of pot (A) with that on the plants of pot (B).
# as §3, with “CryIA(c)” for “CryIA(b)”, “CryIA(c).” for “CryIA(b).”
# Anthonomus grandis [3] = test: Spray test on young cotton plants, action against Anthonomus grandis adults; conditions: non-transgenic cotton treated with compound and conventional CryIIIA-toxin, each 100, 50, 10, 5, 1 ppm
# Spodoptera littoralis [4] = test: Spray test on young cotton plants, action against Spodoptera littoralis larvae; remark: listed apart in the source
smiles,measurement,setting,value
"CN1COCN(Cc2cnc(Cl)s2)/C1=N\[N+](=O)[O-] [thiamethoxam, 5-(2-Chlorthiazol-5-ylmethyl)-3-methyl-4-nitroimino-perhydro-1,3,5-oxadiazin]","control of the tested insects (percentage reduction in population or feeding damage, % action)","Anthonomus grandis [1]; transgenic cotton expressing δ-endotoxin CryIIIA, compared with non-transgenic plant",superior
same,"control of the tested insects (percentage reduction in population or feeding damage, % action)",Anthonomus grandis [1]; transgenic cotton expressing δ-endotoxin CryIa(c),superior
same,"control of the tested insects (percentage reduction in population or feeding damage, % action)","Spodoptera littoralis [2]; non-transgenic cotton treated with compound and conventional CryIIIA-toxin, each 100, 50, 10, 5, 1 ppm, comparison arm for CryIa(c) cotton",insufficient
same,"control of the tested insects (percentage reduction in population or feeding damage, % action)","Spodoptera littoralis [2]; transgenic cotton expressing δ-endotoxin CryIa(c), spray 100, 50, 10, 5, 1 ppm, evaluation 3 to 10 days",superior
same,"control (percentage reduction in population, % action)","Heliothis spp.; plot (a) maize cv. KnockOut, spray 200, 100, 50, 10, 5, 1 ppm, natural infestation",Improved control
same,control level,"Heliothis spp.; plot (b) conventional maize, compound 200, 100, 50, 10, 5, 1 ppm, then same ppm of the endotoxin expressed by KnockOut",≤ 60%
same,"control (percentage reduction in population, % action)",Nilaparvata lugens; pot (A) rice plants expressing δ-endotoxin CryIa(b),Improved control
same,"control (percentage reduction in population, % action)",Nilaparvata lugens; pot (A) rice plants expressing δ-endotoxin CryIa(c),Improved control
same,control level,Nilaparvata lugens; 400 ppm compound and 400 ppm δ-endotoxin CryIA(b),≤ 60%
same,control level,Nilaparvata lugens; 400 ppm compound and 400 ppm δ-endotoxin CryIA(c),≤ 60%
same,"control of the tested insects (percentage reduction in population or feeding damage, % action)",Anthonomus grandis [3]; comparison arm for CryIIIA cotton,insufficient
same,"control of the tested insects (percentage reduction in population or feeding damage, % action)",Anthonomus grandis [3]; comparison arm for CryIa(c) cotton,insufficient
same,"control of the tested insects (percentage reduction in population or feeding damage, % action)","Spodoptera littoralis [4]; non-transgenic cotton treated with compound and conventional CryIIIA-toxin, each 100, 50, 10, 5, 1 ppm, comparison arm for CryIIIA cotton",insufficient
same,"control of the tested insects (percentage reduction in population or feeding damage, % action)","Spodoptera littoralis [4]; transgenic cotton expressing δ-endotoxin CryIIIA, spray 100, 50, 10, 5, 1 ppm, evaluation 3 to 10 days, compared with non-transgenic plant",superior
